Source: patent publication US20120225862A1, “HETEROARYL BENZAMIDES, COMPOSITIONS AND METHODS OF USE” (AUCKLAND UNIVSERVICES LIMITED, priority 2009, published 2012)

Assays:
Type in all cases: cell-based, human
[1] = system: p53; experiment: DNA damage response (Western blot p53, phospho-p53); details: RCC4 and RCC4/VHL, 1.25, 2.5 and 5 μM
Procedure: (A) Clonogenic survival of RCC4 and RCC4/VHL treated with […] (5 μM)(*p<0.05). All error bars represent the standard error of the mean. […] RCC4 and RCC4/VHL cells were treated with increasing concentrations of compound 47 (1.25, 2.5 and 5 μM), a negative control (DMSO) and a positive control (4-(pyridin-4-yl)-N-(m-tolyl)thiazol-2-amine). Cells were lysed and probed for LC3, a marker of autophagy, or α-tubulin (loading control). […] RCC4 and RCC4/VHL cells were treated with vehicle, increasing concentrations of compound 47, and camptothecin. Cells were stained with DAPI and nuclear condensation was examined by fluorescence microscopy. (D) RCC4 cells were treated with compound 47 (5 μM) for the indicated time and stained with Annexin V and propidium iodide and subjected to FACS analysis. […] RCC4 and RCC4/VHL cells were subjected to increasing concentrations of compound 47 (1.25, 2.5, and 5 μM), a negative control (DMSO), and a positive control (doxorubicin). Cells were lysed and subjected to Western blot with the indicated antibodies.
However, RCC cells without VHL undergo a necrotic cell death in response to compound 47 as measured by the ability of the cells to exclude trypan blue, an indicator of cell membrane integrity.

[2] = system: 786-O; experiment: 3H-2-deoxyglucose uptake, 786-O; details: 5 μM, FIG. 8B
Procedure: One hundred thousand cells were plated into 6-well plates. The following day, the cells were treated with vehicle or drug and incubated for the indicated time. Cells were washed twice in phosphate buffered saline and low glucose media was added for 30 minutes. Cells were then incubated with 0.5 microCi of tritiated-2-deoxyglucose and incubated for an hour at 37° C. Cells were washed twice in PBS and then lysed in 0.2 N NaOH and 0.2% SDS. Lysates were transferred to scintillation tubes with scintillation fluid and quantified by scintillation counter.
One hundred thousand cells were plated per well in a six-well plate. The next day, cells were treated with the indicated concentration of drug and incubated for the indicated time. Cells were then washed twice with phosphate-buffered saline, incubated in low-glucose medium for 30 minutes, and ^3H-2-deoxyglucose (0.5 μCi) was added in 1 ml of glucose-free media for an additional hour. Cells were washed twice in PBS and lysed (0.2 N NaOH and 0.2% sodium dodecyl sulfate). Glucose uptake was quantified with a scintillation counter.

[3] = system: RCC4/VHL; experiment: XTT IC50 assay, selectivity RCC4 versus RCC4 with VHL-reintroduced; details: selectivity ratio of XTT IC50 values, RCC4 vs RCC4/VHL
Procedure, shortened: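 RCC4 parental and VHL-reintroduced RCC4/VHL cells (DMEM, 10% FCS) treated with serially diluted drug for four days. Viability by XTT (0.3 mg/mL) with N-methyl dibenzopyrazine methyl sulfate, 1–2 h at 37 °C, absorbance 450 nm; IC50 by linear interpolation.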

[4] = system: RCC4; experiment: Clonogenic survival, RCC4
Procedure: Three hundred cells were plated into 60-mm tissue culture dishes in DMEM. The next day, cells were treated with vehicle or drug and were further incubated for an additional 10 days. […] The stain was removed and plates were washed in deionized water. Colonies were quantified. All conditions were measured in triplicate and all experiments were performed in triplicate.
For 2,3-bis[2-methoxy-4-nitro-5-sulfophenyl]-2H-tetrazolium-5-carboxanilide (XTT) assays, five thousand cells were plated in 96-well plates. The next day, vehicle (DMSO) or drug was added by serial dilution. […] Metabolism of XTT was quantified by measuring the absorbance at 450 nm. IC50s were calculated using linear interpolation. For clonogenic survival assays, three hundred cells were plated per 60 mm tissue culture dish. The cells were allowed to attach overnight and then treated with vehicle or drug for […]. […] All conditions were measured in triplicate and each experiment was done in duplicate or triplicate. To determine necrosis, cells were treated with drug for a given time point. Media and cells were collected, centrifugated, and resuspended in 0.4% trypan blue (Invitrogen). Live and dead cells were counted on a hematocytometer.

CC(C)(C)c1ccc(S(=O)(=O)NCc2ccc(C(=O)Nc3cccnc3)cc2)cc1 [Example 38, 4-((4-tert-Butylphenylsulfonamido)methyl)-N-(pyridin-3-yl)benzamide]
total p53 or phospho-p53 levels (DNA damage response) [1]: did not increase
glucose uptake in 786-O cells [2]: impaired glucose uptake
Ratio (RCC4:RCC/VHL) [3]: c (“c” reflects a ratio of >100)
reversibility of induced cell death ([4]; 5 μM, media replaced after indicated time, total 10 days): irreversible after three days
clonogenic survival of RCC4 ([4]; RCC4 (VHL-deficient), 5 μM, 10 days): specifically toxic to RCC4 cells
RCC4 cells killed following treatment ([4]; compound 5 μM, FIG. 2D): Approximately 80%
